In experiment [1] the test system is Mus musculus. In words: Antitumor activity against mouse macrophages after day 28 at dose 2.50 mg/kg by peroral administration. The format is functional. As to conditions: dose 2.5 mg/kg; route oral.
Experiment [2] concerns Mus musculus. The experiment in a line: Antitumor activity against mouse macrophages after day 21 at dose 2.50 mg/kg by peroral administration. In kind it is functional. As to conditions: dose 2.5 mg/kg; route oral.
The subject of experiment [3] is Mus musculus. In words: Antitumor activity against mouse macrophages after day 14 at dose 2.50 mg/kg by peroral administration. In kind it is functional. As to conditions: dose 2.5 mg/kg; route oral.
The test system of experiment [4] is Mus musculus. In words: Antitumor activity against mouse macrophages after day 7 at dose 2.50 mg/kg by peroral administration. The format is functional. The conditions noted are these: dose 2.5 mg/kg; route oral.
The test system of experiment [5] is Mus musculus. In words: Mouse survived after 28 days at 2.5 mg/kg; 3/10. In kind it is functional.
For experiment [6], the system named is Mus musculus. In words: Mouse survived after 28 days at 2.5 mg/kg; 8/10. The format is functional.
Experiment [7] in a line: Antitumor activity against Abelson-8.1 cells at concentration 3 ug/mL and at 72 hr using direct cytotoxicity assay. In kind it is functional, Mus musculus.
Experiment [8] can be described thus: Antitumor activity against Abelson-8.1 cells at concentration 3 ug/mL and at 72 hr using Activated Macrophage Cytotoxicity assay. In kind it is functional, Mus musculus.
Experiment [9] has as its system L1210. The experiment in a line: Antitumor activity against L1210 cells at concentration 1 ug/mL and at 72 hr using direct cytotoxicity assay. In kind it is functional, Mus musculus.
Experiment [10] is described as follows: Antitumor activity against Abelson-8.1 cells at concentration 5 ug/mL and at 72 hr using Activated Macrophage Cytotoxicity assay. The format is functional, Mus musculus.
The test system of experiment [11] is P815. In words: Antitumor activity against P815 cells at concentration 3 ug/mL and at 72 hr using Activated Macrophage Cytotoxicity assay. In kind it is functional, Mus musculus.
Experiment [12] relates to L1210. In words: Antitumor activity against L1210 cells at concentration 5 ug/mL and at 72 hr and at 72 hr using Activated Macrophage Cytotoxicity assay. The format is functional, Mus musculus.
The test system of experiment [13] is YAC-1. The experiment in a line: Antitumor activity against YAC-1 tumor cells at concentration 5 ug/mL and at 72 hr using direct cytotoxicity assay. In kind it is functional, Mus musculus.
Experiment [14] concerns Mus musculus. In words: Mouse survived after 28 days at 2.5 mg/kg; 6/10. In kind it is functional.
The test system of experiment [15] is Mus musculus. The experiment in a line: Mouse survived after 28 days at 0.25 mg/kg; 3/10. The format is functional.
Experiment [16] deals with YAC-1. The experiment in a line: Antitumor activity against YAC-1 tumor cells at concentration 5 ug/mL and at 72 hr using Activated Macrophage Cytotoxicity assay. In kind it is functional, Mus musculus.
Experiment [17] relates to P815. The experiment in a line: Antitumor activity against P815 cells at concentration 5 ug/mL and at 72 hr using direct cytotoxicity assay. The format is functional, Mus musculus.
Experiment [18] concerns YAC-1. The experiment in a line: Antitumor activity against YAC-1 tumor cells at concentration 1 ug/mL and at 72 hr using Activated Macrophage Cytotoxicity assay. In kind it is functional, Mus musculus.
Experiment [19] concerns Mus musculus. In words: Antitumor activity against mouse macrophages after day 28 at dose 0.25 mg/kg by peroral administration. The format is functional. As to conditions: route oral.
Experiment [20] has as its system YAC-1. In words: Antitumor activity against YAC-1 tumor cells at concentration 3 ug/mL and at 72 hr using Activated Macrophage Cytotoxicity assay. The format is functional, Mus musculus.
Experiment [21] relates to P815. The experiment in a line: Antitumor activity against P815 cells at concentration 1 ug/mL and at 72 hr using direct cytotoxicity assay. In kind it is functional, Mus musculus.
Experiment [22] has as its system Mus musculus. The experiment in a line: Antitumor activity against mouse macrophages after day 7 at dose 0.25 mg/kg by peroral administration. In kind it is functional. As to conditions: route oral.
A short description of experiment [23]: Antitumor activity against Abelson-8.1 cells at concentration 5 ug/mL and at 72 hr using direct cytotoxicity assay. The format is functional, Mus musculus.
Experiment [24] has as its system P815. The experiment in a line: Antitumor activity against P815 cells at concentration 3 ug/mL and at 72 hr using direct cytotoxicity assay. In kind it is functional, Mus musculus.
Experiment [25] relates to L1210. In words: Antitumor activity against L1210 cells at concentration 3 ug/mL and at 72 hr using direct cytotoxicity assay. In kind it is functional, Mus musculus.
In experiment [26] the test system is P815. In words: Antitumor activity against P815 cells at concentration 5 ug/mL and at 72 hr using Activated Macrophage Cytotoxicity assay. In kind it is functional, Mus musculus.
The test system of experiment [27] is YAC-1. In words: Antitumor activity against YAC-1 tumor cells at concentration 3 ug/mL and at 72 hr using direct cytotoxicity assay. In kind it is functional, Mus musculus.
Experiment [28] is described as follows: Antitumor activity against Abelson-8.1 cells at concentration 1 ug/mL and at 72 hr using direct cytotoxicity assay. In kind it is functional, Mus musculus.
For experiment [29], the system named is Mus musculus. The experiment in a line: Antitumor activity against mouse macrophages after day 14 at dose 0.25 mg/kg by peroral administration. The format is functional. The conditions noted are these: route oral.
Experiment [30] has as its system L1210. The experiment in a line: Antitumor activity against L1210 cells at concentration 1 ug/mL and at 72 hr using Activated Macrophage Cytotoxicity assay. In kind it is functional, Mus musculus.
Experiment [31] deals with L1210. In words: Antitumor activity against L1210 cells at concentration 3 ug/mL using Activated Macrophage Cytotoxicity assay. The format is functional, Mus musculus.
For experiment [32], the system named is Mus musculus. In words: Antitumor activity against mouse macrophages after day 21 at dose 0.25 mg/kg by peroral administration. The format is functional. As to conditions: route oral.
The subject of experiment [33] is L1210. In words: Antitumor activity against L1210 cells at concentration 5 ug/mL and at 72 hr using direct cytotoxicity assay. In kind it is functional, Mus musculus.
The nature of experiment [34]: Antitumor activity against Abelson-8.1 cells at concentration 1 ug/mL and at 72 hr using Activated Macrophage Cytotoxicity assay. In kind it is functional, Mus musculus.
The test system of experiment [35] is YAC-1. In words: Antitumor activity against YAC-1 tumor cells at concentration 1 ug/mL and at 72 hr using direct cytotoxicity assay. In kind it is functional, Mus musculus.
In experiment [36] the test system is P815. The experiment in a line: Antitumor activity against P815 cells at concentration 1 ug/mL and at 72 hr using Activated Macrophage Cytotoxicity assay. In kind it is functional, Mus musculus.
Experiment [37] has as its system L1210. In words: Antitumor activity against L1210 cells at concentration 3 ug/mL and at 72 hr using Activated Macrophage Cytotoxicity assay. In kind it is functional, Mus musculus.
For experiment [38], the system named is L1210. In words: Antitumor activity against L1210 cells at concentration 5 ug/mL and at 72 hr using Activated Macrophage Cytotoxicity assay. In kind it is functional, Mus musculus.
Experiment [39] deals with Mus musculus. In words: Mouse survived after 28 days at 0.25 mg/kg; 2/10. The format is functional.
In experiment [40] the test system is Mus musculus. In words: Mouse survived after 28 days at 0.25 mg/kg; 8/10. In kind it is functional.

For the molecule `CCCCCCCCCCCCCCCCCCOC[C@@]1(COP(=O)([O-])OCC[N+](C)(C)C)CCCO1`, the Control in experiment [1] was 32%; in experiment [2], 21%; in experiment [3], 53%; in experiment [4], 85%. For the same molecule, the Survivors in experiment [5] is 3.

For `CCCCCCCCCCCCCCCCCCOC[C@]1(COP(=O)([O-])OCC[N+](C)(C)C)CCCO1`, the Control is given as 13% in experiment [1], 8% in experiment [2], 28% in experiment [3] and 70% in experiment [4]. This molecule yielded a Survivors in experiment [6] of 8.

With `CCCCCCCCCCCCCCCCCCOCC1(COP(=O)([O-])OCC[N+](C)(C)C)CCCO1` (racemic; 5), the Viable cells came out at 2.6% in experiment [7]; 0.2% in [8]; 100% in experiment [9]; 0.1% in experiment [10]; 0.7% in experiment [11]; 0.9% in experiment [12]. Further, the Viable cells was determined as 8.9% in [13]; 1.2% in [16]; 5.3% in experiment [17]; 16% in experiment [18]; 2.5% in experiment [20]; 60% in experiment [21]. Further, the Viable cells is 2% in experiment [23]; 13% in experiment [24]; 20% in experiment [25]; 0.6% in experiment [26]; 26% in experiment [27]; 32% in experiment [28]. For the same molecule, the Viable cells in [30] is on record as 9.4%; in [31] it was 1.6%; in experiment [33], 8.6%; in [34], 0.4%; in experiment [35], 81%; in experiment [36] it was 3.4%. Also, the Control turned out to be 21% in experiment [1]; 14% in experiment [2]; 32% in experiment [19]; 38% in experiment [3]; 76% in [4]; 82% in experiment [22]. For the same molecule, the Control in experiment [29] was found to be 47%; in experiment [32], 20%. Further, the Survivors came to 6 in [14] and 3 in experiment [15].

Regarding `CCCCCCCCCCCCCCCCCCOCC1(COP(=O)([O-])OCC[N+](C)(C)C)CCCO1` (racemic; 8), the Viable cells is 6.8% in experiment [7]; 84% in experiment [9]; 0.2% in experiment [10]; 1.8% in [11]; 4.5% in [13]; 2.8% in experiment [17]. The Viable cells in experiment [37] amounted to 1.4%; in experiment [20], 1.6%; in [21] it was 68%; in experiment [23] it was 4.6%; in experiment [24], 20%; in experiment [25], 24%. The Viable cells in [26] was 1.3%; in experiment [27], 14%; in experiment [38], 1.1%; in [28] it was 71%; in experiment [30], 5.3%; in experiment [33], 13%. Moreover, the figures for the Viable cells in experiment [34], in experiment [35] and in experiment [36] were 0.5%, 92% and 3.1%, respectively. Also, the Control is 37% in experiment [19], 90% in experiment [22], 52% in [29] and 21% in [32]. Further, the Survivors in [39] worked out at 2.

As for `CCCCCCCCCCCCCCCCCCOCC1(COP(=O)([O-])OCC[N+](C)(C)C)CCCO1` (racemic; 9), the Viable cells in experiment [7] is recorded as 2.1%; in [8], 0.3%; in experiment [9] it was 55%; in experiment [10], 0.4%; in [11], 1.1%; in [13] it was 9%. Besides, the Viable cells in [16] was 0.9%; in experiment [17], 2.6%; in experiment [18], 11%; in experiment [20] it was 2.3%; in experiment [21], 16%; in [23], 1.8%. Besides, the Viable cells in experiment [24] came out at 7%; in experiment [25] it was 7.7%; in experiment [26] it was 0.3%; in experiment [27], 22%; in experiment [38], 0.2%; in experiment [28] it was 8.6%. In addition, the Viable cells in [30] was 3.4%; in experiment [31] it was 0.6%; in experiment [33], 3.2%; in experiment [34], 0.8%; in [35] it was 60%; in experiment [36] it was 2.8%. Also, the Control is 11% in experiment [19], 66% in experiment [22], 19% in experiment [29] and 6% in experiment [32]. The molecule further gave a Survivors in experiment [40] of 8.
